# Where a chain is given by its changes, count along the chain named.
# Experiments:
# [1] = target: T1, KDM4B S965D (Homo sapiens, UniProt O94953, S965D); assay: FP binding, KDM4B-DTD S965D; settings: pH 7.4, Fig. 4i (± s.d., three replicates) and text
# T1 construct: DNA encoding DTDs (KDM4A 895–1011aa, KDM4B 917–1031aa and KDM4C 877–991aa); (His)6-HaloTag (pFN29) or (His)6 (pET28b); made in house; host or cells: Escherichia coli BL21 (DE3)
# T1 sequence (O94953 917-1031 S965D): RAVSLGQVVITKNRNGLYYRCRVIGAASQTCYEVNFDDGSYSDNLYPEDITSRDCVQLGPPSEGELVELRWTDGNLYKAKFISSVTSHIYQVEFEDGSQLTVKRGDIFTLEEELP
# Description: (§1) KDM4 protein sequences used in this study correspond to Uniprot ID: O75164 (human KDM4A, isoform 1), O94953 (human KDM4B, isoform1) and Q9H3R0 (human KDM4C, isoform1). Plasmid encoding KDM4A DTD was kindly provided by R-M Xu (Chinese Academy of Sciences). Complementary DNA encoding human KDM4B-DTD was synthesized (Integrated DNA Technologies). Plasmid containing cDNA of full-length KDM4C (clone ID: HsCD00341594) was obtained from Harvard Plasmid Repository. DNA encoding DTDs (KDM4A 895–1011aa, KDM4B 917–1031aa and KDM4C 877–991aa) were cloned into pFN29 (Promega) with N-terminal (His)6-HaloTag or pET28b with N-terminal (His)6 Tag using In-Fusion HD cloning kit (Clontech). […]
# (§2) Peptide sequences are given in Supplementary Table 1. […] Polarization at each concentration was measured as triplicates in 384-well polystyrene black microplates (Thermo Fisher Scientific 262260) by Biotek Synergy H4 multimode plate reader (light source: xenon flash, offset from top: 7 mm, sensitivity: 60%, excitation: 485/20 nm, emission: 528/20 nm, both parallel and perpendicular, normal read speed). Fraction bound (Fb) at each concentration was calculated based on the corresponding polarization values (P): Fbc=(Pc−Pmin)/(Pmax−Pmin), where Pmin is the polarization value of no-protein control and Pmax is the polarization value of the saturation value for that peptide. […]
# [2] = target: T2, KDM4B DTD (human KDM4B double tudor domain, 917–1031aa) (Homo sapiens, UniProt O94953); assay: fluorescence polarization (FP) binding, KDM4B-DTD wild-type; settings: matrix Fig. 1d, values given in mM, pH 7.4, read-out: binding affinity (Kd), KDM4B DTD
# T2 construct: DNA encoding DTDs (KDM4A 895–1011aa, KDM4B 917–1031aa and KDM4C 877–991aa); (His)6-HaloTag (pFN29) or (His)6 (pET28b); made in house; host or cells: Escherichia coli BL21 (DE3)
# T2 sequence (O94953 917-1031): T1 sequence (O94953 917-1031 S965D) with D49S
# Description: (§3) KDM4 protein sequences used in this study correspond to Uniprot ID: O75164 (human KDM4A, isoform 1), O94953 (human KDM4B, isoform1) and Q9H3R0 (human KDM4C, isoform1). Plasmid encoding KDM4A DTD was kindly provided by R-M Xu (Chinese Academy of Sciences). Complementary DNA encoding human KDM4B-DTD was synthesized (Integrated DNA Technologies). Plasmid containing cDNA of full-length KDM4C (clone ID: HsCD00341594) was obtained from Harvard Plasmid Repository. DNA encoding DTDs (KDM4A 895–1011aa, KDM4B 917–1031aa and KDM4C 877–991aa) were cloned into pFN29 (Promega) with N-terminal (His)6-HaloTag or pET28b with N-terminal (His)6 Tag using In-Fusion HD cloning kit (Clontech). Plasmids encoding Xenopus laevis core histones were a generous gift of K. Luger (University of Colorado-Boulder). Site-directed mutagenesis was performed with Q5 Site-Directed Mutagenesis Kit (New England Biolabs).
# (§4) Peptide sequences are given in Supplementary Table 1. […] A no-protein control with only peptide probe was included. Polarization at each concentration was measured as triplicates in 384-well polystyrene black microplates (Thermo Fisher Scientific 262260) by Biotek Synergy H4 multimode plate reader (light source: xenon flash, offset from top: 7 mm, sensitivity: 60%, excitation: 485/20 nm, emission: 528/20 nm, both parallel and perpendicular, normal read speed). Fraction bound (Fb) at each concentration was calculated based on the corresponding polarization values (P): Fbc=(Pc−Pmin)/(Pmax−Pmin), where Pmin is the polarization value of no-protein control and Pmax is the polarization value of the saturation value for that peptide. Dissociation constants (Kd) were derived by KaleidaGraph, Synergy Software (version 4.1.3) using the following equation: Fb=[protein]/([protein]+Kd).
# [3] = target: T3, KDM4B N960A (Homo sapiens, UniProt O94953, N960A); assay: FP binding, KDM4B-DTD N960A; settings: pH 7.4, Fig. 4g (± s.d., three replicates) and text
# T3 construct: DNA encoding DTDs (KDM4A 895–1011aa, KDM4B 917–1031aa and KDM4C 877–991aa); (His)6-HaloTag (pFN29) or (His)6 (pET28b); made in house; host or cells: Escherichia coli BL21 (DE3)
# T3 sequence (O94953 917-1031 N960A): T1 sequence (O94953 917-1031 S965D) with N44A, D49S
# Description: as §1, §2
# [4] = target: T4, KDM4A DTD (human KDM4A double tudor domain, 895–1011aa) (Homo sapiens, UniProt O75164); assay: fluorescence polarization (FP) binding, KDM4A-DTD wild-type; settings: matrix Fig. 1d and Fig. 3c, pH 7.4, read-out: binding affinity (Kd), KDM4A DTD wild-type
# T4 construct: DNA encoding DTDs (KDM4A 895–1011aa, KDM4B 917–1031aa and KDM4C 877–991aa); (His)6-HaloTag (pFN29) or (His)6 (pET28b); made in house; host or cells: Escherichia coli BL21 (DE3)
# T4 sequence (O75164 895-1011): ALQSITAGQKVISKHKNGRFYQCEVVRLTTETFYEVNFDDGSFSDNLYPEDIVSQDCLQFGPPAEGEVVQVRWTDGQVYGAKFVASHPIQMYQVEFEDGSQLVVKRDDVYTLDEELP
# Description: as §3, §4
smiles,measurement,setting,value
C[C@H](N)C(=O)N[C@@H](CCCNC(=N)N)C(=O)N[C@H](C(=O)N[C@@H](CCCC[N+](C)(C)C)C(=O)N[C@@H](CCC(N)=O)C(=O)N[C@H](C(=O)N[C@@H](C)C(=O)N[C@@H](CCCNC(=N)N)C(=O)N[C@@H](CCCCN)C(=O)N[C@@H](CO)C(=O)N[C@H](C(=O)NCC(=O)NCC(=O)N[C@@H](CCCCNC(=O)c1ccc2c(c1)C(=O)OC21c2ccc(O)cc2Oc2cc(O)ccc21)C(=O)O)[C@@H](C)O)[C@@H](C)O)[C@@H](C)O [H3K4me3],Kd,[1],199 ± 16.1 µM
same,Kd,[2],> 3 mM
same,Kd,[3],304 ± 35.8 µM
same,Kd,[4],2700 nM
